The values that follow come from US11331328B2, “Compositions and methods for inhibiting antiapoptotic Bcl-2 proteins as anti-aging agents” (priority 2014, dated 2022).

Structures are written as SMILES.

Data set [1] has as its system wild-type or p16-3MR mice. Particulars: at the doses used; cited from earlier work.
The subject of data set [2] is IL-1α, TNFα, CCL-5, CXCL-10 mRNA. In words: SASP mRNA levels in lungs of TBI p16-3MR mice (qRT-PCR). Particulars: 6 Gy TBI; 2 treatment cycles. In kind it is in vivo, mouse. Here is the method: To measure p21 and GAPDH mRNA levels in WI-38 cells and IL-1α, TNFα, CCL-5, and CXCL-10 mRNA levels in mouse tissues, SYBR assay kit was used (Applied biosystems in life technologies). Briefly, 1 μl cDNA was mixed with 7.5 μl SYBR Green PCR Master Mix and 0.2 μl of primers (Table 5). Samples were then added with 6.30 μl of H2O to give a total 15 μl of mixture. qPCR conditions were as follows: 95° C. for 10 min, 40×(95° C. for 15 s and 60° C. for 1 min), 95° C. for […], 95° C. for 15 min. All reactions were run in triplicate on an ABI StepOnePlus Real-Time PCR System.

Data set [3] concerns senescent cells in TBI p16-3MR mice. Description: Senescent cell clearance in TBI p16-3MR mice (luminescence, p16 mRNA). The note with it: 6 Gy TBI; 2 treatment cycles. In kind it is in vivo, mouse.
Procedure: ABT was given by gavage at 50 mg/kg/d for 7 d per cycle for 2 cycles with a 2-wk interval. GCV was given to the mice by ip injection at 25 mg/kg/d for 5 d per cycle for 2 cycles with a 2-wk interval. […] The mice were euthanized the day after the imaging by CO2 inhalation and followed by cervical dislocation. Tissues were harvested for immediate tissue luminescence imaging as described below or RNA extraction for analyses of p16, IL-1α, CCL-5, and CXCL-10 mRNA levels by qRT-PCR.
For in vivo luminescence, mice were injected i.p. with 250 μl of Xenolight RediJect Coelenterazine h (100 μg/mL, Calipers-PerkinElmer, Waltham, Mass., USA). The mice were anesthetized with 4% isoflurane gas at 1 L/minute oxygen flow 5 min after the injection. Luminescence images were acquired using a Xenogen IVIS-200 Optical In Vivo imaging System equipped with a Living Image Version 4.3.1 (Caliper Life Sciences, Hopkinton Mass., USA). Mice were oriented in a supine position in the scanner. […]
For tissue luminescence imaging, after harvested from euthanized mice, tissues were immediately soaked in pre-warmed (37° C.) PBS with 2% FBS and 1:10 dilution of Xenolight RediJect Coelenterazine h for 10 min. They were transferred into a new 35-mm dish and luminescence images were taken 12-15 min after soaking in the substrate solution using a Xenogen IVIS-200 Optical In Vivo imaging System. […]

As to `Nc1nc(O)c2ncn(COC(CO)CO)c2n1` [GCV, ganciclovir], in data set [1], the toxicity to mice result is “non-toxic to wild-type or p16-3MR mice”. In addition, the SASP in lungs entry in data set [2] was “suppressed the SASP induced by TBI”. Moreover, the “SCs in lungs (luminescence, p16 mRNA)” value in data set [3] is recorded as “reduced IR-induced SCs”.
